The record followed here is patent US20250250310A1, “COMBINATION THERAPY WITH ADP-RIBOSE BINDING PEPTIDE AND ADP-RIBOSE FOR PREVENTION OR TREATMENT OF CANCER” (PEARLSINMIRES CO., LTD., priority 2023, published 2025).

Data set [1] relates to MDA-MB-231 cancer cells. Nature of the data set: MDA-MB-231 cell viability (MTT), sustained release derivative alone or in combination. The conditions noted are these: 96 hours. Format: cell-based. As for the experimental part: Each of 2.5×10^3 human-derived pancreatic cancer (Aspc-1), kidney cancer (Caki-1), breast cancer (HCC1937), liver cancer (HepG2), lung cancer (H1975), colon cancer (HCT116), ovarian cancer (OVCAR-3), brain cancer (U87) cells were cultured in a 96-well plate under 37° C. and 5% CO2 conditions for 24 hours, and then treated with the sustained release derivative alone. In addition, MDA-MB-231 cancer cells were divided into the following groups and treated with each formulation at GI20 concentration alone or in combination. • 1) Untreated group • 2) Group treated with sustained-release derivative alone at 5 μM concentration • 3) Group treated with ADPR at 2 mM concentration alone • 4) Group treated with NAD^+ at 2 mM concentration alone • 5) Groups treated with various anti-cancer drugs alone (Cisplatin at 2 μM, Docetaxel at 1 μM, Dichloroacetate at 3 mM, Doxorubicin at 2 μM, Sorafenib at 2 μM, Osimertinib at 10 nM, Trastuzumab at 0.2 μM, Bevacizumab at 0.2 nM, Tamoxifen at 0.2 μM, or Olaparib at 1 μM) • 6) Group treated in combination with ADPR at 2 mM concentration and a sustained-release derivative at 5 μM concentration • 7) Group treated in combination with ADPR at 2 mM concentration, NAD^+ at 2 mM concentration, and a sustained-release derivative at 5 μM concentration • 8) Group treated in combination with ADPR at 2 mM concentration, a sustained-release derivative at 5 μM concentration, and various anti-cancer drugs (same concentration as Group 5 above).
The cells were then cultured for another 96 hours at 37° C. and 5% CO2, and 10 μl of 3-(4,5-dimethylthiazol-2-yl)-2,5-diphenyltetrazolium bromide reagent was added to each well and reacted for 1 hour. The reagent was removed at the end of the reaction, 200 μl of dimethyl sulfoxide was then added to each well, and the absorbance was measured to determine the cell viability.

For data set [2], the system named is ovarian cancer (OVCAR-3) cells. Nature of the data set: OVCAR-3 cell viability (MTT), peptides and NAD^+ alone or in combination. Format: cell-based, human. Conditions: NAD^+ 1 mM alone, 96 hours. As for the experimental part:
Specifically, 2.5×10^3 ovarian cancer (OVCAR-3) cells were cultured in a 96-well plate for 24 hours under 37° C. and 5% CO2 conditions, and then divided into the following groups and treated with each peptide according to Examples at GI50 concentration alone or in combination. • 1) Untreated group • 2) Group treated with NAD^+ at 1 mM concentration alone • 3) Group treated with peptide of Example 2 at 25 μM concentration alone • 4) Group treated with CPP-peptide of Example 16 at 10 μM concentration alone • 5) Group treated in combination with NAD^+ at 1 mM concentration and peptide of Example 2 at 25 μM concentration (Combination 1) • 6) Group treated in combination with NAD^+ at 1 mM concentration and CPP-peptide of Example 16 at 10 μM concentration (Combination 2)
(§1) The cells were then cultured for another 96 hours under 37° C. and 5% CO2 conditions, and 10 μl of 3-(4,5-dimethylthiazol-2-yl)-2,5-diphenyltetrazolium bromide reagent was added to each well and reacted for 1 hour. The reagent was removed at the end of the reaction, 200 μl of dimethyl sulfoxide was then added to each well, and the absorbance was measured to determine the cell viability.

The subject of data set [3] is PARP inhibitor-resistant breast cancer (HCC1937) cells. Nature of the data set: Cell viability (MTT) in PARP inhibitor-resistant cancer cell line. Format: cell-based, human. Conditions: Homo sapiens, Olaparib 2 μM alone, 96 hours, read-out: cancer cells viable. The procedure: Specifically, 2.5×10^3 PARP inhibitor-resistant breast cancer (HCC1937) cells were cultured in a 96-well plate for 24 hours under 37° C. and 5% CO2 conditions.
The cells were then divided into the following groups and treated with each peptide according to Examples at GI50 concentration alone or in combination. • 1) Untreated group • 2) Group treated with PARP inhibitor (Olaparib) at 2 μM concentration • 3) Group treated with ADPR at 1 mM concentration alone • 4) Groups treated with each peptide of Examples 1 to 6 at 25 μM concentration alone • 5) Groups treated with each CPP-peptide of Examples 15 to 20 at 10 μM concentration alone • 6) Group treated in combination with ADPR at 1 mM concentration and each peptide of Examples 1 to 6 at 25 μM concentration (Combination 1) • 6) Group treated in combination with ADPR at 1 mM concentration and CPP-peptide of Examples 15 to 20 at 10 μM concentration (Combination 2)
as §1

The nature of data set [4]: Normal cytotoxicity of sustained release derivative alone or in combination (MTT). Conditions: human, MRC5 cells (normal), sustained-release derivative alone, read-out: viability of normal cells compared to the untreated group. The data set is classed as cell-based. As for the experimental part:
In a 96-well plate, 2.5×10^3 human-derived normal MRC5 cells were cultured for 24 hours under 37° C. and 5% CO2 conditions, and then treated with the sustained-release derivative and ADPR alone or in combination.
The cells were then cultured for another 96 hours at 37° C. and 5% CO2, and 10 μl of 3-(4,5-dimethylthiazol-2-yl)-2,5-diphenyltetrazolium bromide reagent was added to each well and reacted for 1 hour. The MTT reagent was removed at the end of the reaction, 200 μl of dimethyl sulfoxide was then added to each well, and the absorbance was measured to determine the cell viability.

SMILES strings stand for the structures. Where a SMILES comes first, the peptide text is derived from it. [ ]: non-standard residue; d: D form. The star is where a group is joined. Stearoyl = CCCCCCCCCCCCCCCCCC(=O)*; AEEA = NCCOCCOCC(=O)O

Turning to `NC(=O)c1ccc[n+]([C@@H]2O[C@H](COP(=O)(O)OP(=O)(O)OC[C@H]3O[C@@H](n4cnc5c(N)ncnc54)[C@H](O)[C@@H]3O)[C@@H](O)[C@H]2O)c1` [NAD^+, nicotinamide adenine dinucleotide], the viability at 2000 µM in data set [1] (Homo sapiens, single treatment (derivative 5 μM, ADPR 2 mM, NAD^+ 2 mM, anti-cancer drugs)) stood at 80%. In addition, the “cell growth / viability vs control group” value in data set [2] was “not significantly different from the control group”.

As for `O=C(c1cc(Cc2n[nH]c(=O)c3ccccc23)ccc1F)N1CCN(C(=O)C2CC2)CC1` [Olaparib, reference compound], the viability at 2 µM in data set [3] is around 80%.

Turning to `CCCCCCCCCCCCCCCCCC(=O)NCCCC[C@H](NC(=O)[C@H](CCCNC(=N)N)NC(=O)[C@H](CCCNC(=N)N)NC(=O)[C@H](CCCNC(=N)N)NC(=O)CNC(=O)[C@H](Cc1c[nH]cn1)NC(=O)[C@H](CCC(=O)O)NC(=O)[C@H](CC(N)=O)NC(=O)[C@H](CCCNC(=N)N)NC(=O)[C@H](CCCNC(=N)N)NC(=O)[C@H](Cc1ccc(O)cc1)NC(=O)[C@H](CCC(N)=O)NC(=O)[C@@H](NC(=O)[C@H](CCSC)NC(=O)[C@H](CC(N)=O)NC(=O)[C@H](CCC(=O)O)NC(=O)[C@H](CC(C)C)NC(=O)[C@H](CC(=O)O)NC(=O)[C@H](C)NC(=O)[C@@H](NC(=O)[C@H](Cc1ccc(O)cc1)NC(=O)[C@H](CC(C)C)NC(=O)[C@H](Cc1ccccc1)NC(=O)[C@H](CCC(N)=O)NC(=O)[C@@H]1CCCN1C(=O)[C@H](CCCNC(=N)N)NC(=O)[C@H](CCCNC(=N)N)NC(=O)[C@H](CCCNC(=N)N)NC(=O)[C@H](CCC(N)=O)NC(=O)[C@H](CCCNC(=N)N)NC(=O)[C@H](CCCNC(=N)N)NC(=O)[C@H](CCCCN)NC(=O)[C@H](CCCCN)NC(=O)[C@H](CCCNC(=N)N)NC(=O)CNC(=O)COCCOCCN)C(C)C)C(C)C)C(=O)N[C@H](C(=O)N[C@@H](CCCCN)C(=O)N[C@@H](CCCNC(=N)N)C(N)=O)[C@@H](C)CC` [sustained-release derivative] (H-[AEEA]GRKKRRQRRRPQFLYVADLENMVQYRRNEHGRRRK(Stearoyl)IKR-NH2; C-terminus assumed), the viability at 96 h in data set [4] is at least 90%. Also, in data set [1] (sustained-release derivative 5 μM + ADPR 2 mM + NAD^+ 2 mM or various anti-cancer drugs), the “cytotoxicity, triple-drug combination” value is listed as “significantly superior cytotoxicity”. In addition, the “cytotoxicity, combination with ADPR” value in data set [1] (sustained-release derivative 5 μM + ADPR 2 mM) is “showed cytotoxicity”.
